Reference: ChEMBL document CHEMBL3862033 (J Med Chem, 2016)
pIC50, pKi: −log10 of the molar value.

How the values were obtained:
[1] = biological target: 5-hydroxytryptamine receptor 2A (Homo sapiens, UniProt P28223); test: Displacement of [3H]ketanserin from human 5-HT2A receptor expressed in HEK-T cell membranes incubated for 90 mins under dark condition by microbeta scintillation counting method
[2] = biological target: 5-hydroxytryptamine receptor 6 (Homo sapiens) (UniProt P50406); test: Displacement of [3H]LSD from human 5-HT6 receptor expressed in HEK cell membranes at 10 uM incubated for 90 mins under dark condition by microbeta scintillation counting method relative to control; conditions: HEK293
[3] = biological target: T1, Adenosine receptor A1 (Homo sapiens) (UniProt P30542); test: Agonist activity at recombinant human A1AR expressed in CHO cells assessed as inhibition of forskolin-stimulated cAMP accumulation at 10 uM after 15 mins relative to N6-cyclopentyladenosine; format: functional, cell-based
T1 sequence (whole entry): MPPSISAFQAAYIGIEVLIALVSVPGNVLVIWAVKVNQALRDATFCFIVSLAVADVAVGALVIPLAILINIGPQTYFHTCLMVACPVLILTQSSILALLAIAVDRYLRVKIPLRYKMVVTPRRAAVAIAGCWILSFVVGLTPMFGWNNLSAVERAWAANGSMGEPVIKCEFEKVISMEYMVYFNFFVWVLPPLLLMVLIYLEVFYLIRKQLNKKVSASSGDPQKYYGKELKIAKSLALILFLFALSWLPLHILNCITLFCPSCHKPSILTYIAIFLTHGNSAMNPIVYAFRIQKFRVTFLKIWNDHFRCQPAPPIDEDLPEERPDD

[4] = biological target: 5-hydroxytryptamine receptor 1E (Homo sapiens) (UniProt P28566); test: Displacement of [3H]5-HT from human 5-HT1E receptor expressed in HEK cell membranes at 10 uM incubated for 90 mins under dark condition by microbeta scintillation counting method relative to control; conditions: HEK293
Adenosine receptor A3 = biological target: T2, Adenosine receptor A3 (Homo sapiens, UniProt P0DMS8); test: Displacement of [125l]N 6-(4-amino-3-iodobenzyl)adenosine-5'-N-methyluronamide from recombinant human A3AR expressed in CHO cell membranes after 60 mins by gamma counting method
T2 sequence (P0DMS8 whole entry): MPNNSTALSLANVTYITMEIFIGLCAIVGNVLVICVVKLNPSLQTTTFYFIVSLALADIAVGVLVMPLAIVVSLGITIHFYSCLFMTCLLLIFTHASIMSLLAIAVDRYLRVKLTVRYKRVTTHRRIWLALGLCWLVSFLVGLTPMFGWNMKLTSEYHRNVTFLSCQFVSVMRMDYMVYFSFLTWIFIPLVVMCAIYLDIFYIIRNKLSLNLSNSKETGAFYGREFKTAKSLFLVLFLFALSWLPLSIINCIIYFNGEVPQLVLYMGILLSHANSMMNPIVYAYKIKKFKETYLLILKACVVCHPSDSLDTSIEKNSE

[5] = biological target: 5-hydroxytryptamine receptor 1B (Homo sapiens) (UniProt P28222); test: Displacement of [3H]5-CT from human 5-HT1BR expressed in HEK cell membranes at 10 uM incubated for 90 mins under dark condition by microbeta scintillation counting method relative to control; conditions: HEK293
[6] = biological target: T3, 5-hydroxytryptamine receptor 2C (Homo sapiens, UniProt P28335); test: Antagonist activity at human 5-HT2CR expressed in Flp-In HEK cells assessed as inhibition of serotonin induced calcium mobilization preincubated for 5 to 10 mins followed 5-Ht addition by Fluo-4 dye based FLIPR assay; format: functional, cell-based, HEK293
T3 sequence (P28335 whole entry): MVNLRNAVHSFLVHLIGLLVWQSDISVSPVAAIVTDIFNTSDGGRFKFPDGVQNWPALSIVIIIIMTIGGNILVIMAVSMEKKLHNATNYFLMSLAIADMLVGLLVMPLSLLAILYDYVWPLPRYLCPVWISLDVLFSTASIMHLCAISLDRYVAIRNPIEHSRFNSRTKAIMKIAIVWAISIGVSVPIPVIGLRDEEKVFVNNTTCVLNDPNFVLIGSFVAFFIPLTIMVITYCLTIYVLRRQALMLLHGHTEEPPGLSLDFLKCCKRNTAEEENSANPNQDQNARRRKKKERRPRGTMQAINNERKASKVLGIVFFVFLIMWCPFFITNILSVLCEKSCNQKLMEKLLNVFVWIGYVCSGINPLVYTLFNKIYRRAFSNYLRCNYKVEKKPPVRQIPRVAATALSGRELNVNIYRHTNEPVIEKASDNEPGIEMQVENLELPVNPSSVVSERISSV

[7] = biological target: 5-hydroxytryptamine receptor 4 (Homo sapiens) (UniProt Q13639); test: Displacement of [3H]GR113808 from human 5-HT4 receptor at 10 uM incubated for 90 mins under dark condition by microbeta scintillation counting method relative to control
[8] = biological target: 5-hydroxytryptamine receptor 7 (Homo sapiens) (UniProt P34969); test: Displacement of [3H]LSD from human 5-HT7A receptor expressed in HEK cell membranes at 10 uM incubated for 90 mins under dark condition by microbeta scintillation counting method relative to control; conditions: HEK293
Adenosine receptor A2a = Adenosine receptor A2a (Homo sapiens, UniProt P29274); test: Displacement of [3 H]2-[p-(2-carboxyethyl)phenyl-ethylamino]-5'-N-ethylcarboxamidoadenosine from recombinant human adenosine receptor A2A expressed in HEK293 cell membranes after 60 mins by liquid scintillation counting method
[9] = biological target: 5-hydroxytryptamine receptor 5A (Homo sapiens) (UniProt P47898); test: Displacement of [3H]LSD from human 5-HT5A receptor expressed in Flp-In-CHO cell membranes incubated for 90 mins under dark condition by microbeta scintillation counting method relative to control; set-up: concentration or dose not given beside the values
[10] = Half life in mouse liver microsomes; format: ADME
[11] = Apparent permeability across basolateral side to apical side in human Caco2 cells; format: ADME, cell-based; conditions: caco-2
[12] = Metabolic stability in mouse plasma assessed as compound remaining measured after 120 mins; format: ADME, cell-free; conditions: 2 h
[13] = Metabolic stability in rat plasma assessed as compound remaining measured after 120 mins; format: ADME, cell-free; conditions: 2 h
[14] = Half life in rat liver microsomes; format: ADME
[15] = Metabolic stability in human liver microsomes assessed as compound remaining measured after 1 hr in presence of cofactor; format: ADME
[16] = Growth inhibition of human HepG2 cells at 30 uM; format: cell-based; conditions: read-out: GI
Cytochrome P450 2C9 = Cytochrome P450 2C9 (Homo sapiens, UniProt P11712); test: Inhibition of CYP2C9 (unknown origin); format: ADME
[17] = Half life of compound in fasted state simulated intestinal fluid at pH 6.5; format: ADME; conditions: simulated gi fluid
[18] = Volume of distribution at steady state in Sprague-Dawley rat at 1 mg/kg, iv administered as single dose; format: ADME, organism-based; conditions: in vivo
[19] = Half life in Sprague-Dawley rat at 1 mg/kg, iv administered as single dose; format: ADME, organism-based; conditions: in vivo
[20] = Initial plasma concentration in Sprague-Dawley rat at 1 mg/kg, iv administered as single dose; format: ADME, organism-based; conditions: in vivo
[21] = Intrinsic clearance in human liver microsomes; format: ADME
[22] = Metabolic stability in human plasma assessed as compound remaining measured after 120 mins; format: ADME, cell-free; conditions: read-out: Stability
[23] = Half life in human liver microsomes; format: ADME
[24] = Stability of compound in pH 1.6 fasted state simulated gastric fluid assessed as compound remaining measured after 2 hrs; format: ADME; conditions: read-out: Stability
[25] = Half life of compound in fasted state simulated gastric fluid at pH 1.6; format: ADME, tissue-based, Stomach; conditions: simulated gi fluid

Sequence of 5-hydroxytryptamine receptor 5A (Homo sapiens) (P47898 whole entry): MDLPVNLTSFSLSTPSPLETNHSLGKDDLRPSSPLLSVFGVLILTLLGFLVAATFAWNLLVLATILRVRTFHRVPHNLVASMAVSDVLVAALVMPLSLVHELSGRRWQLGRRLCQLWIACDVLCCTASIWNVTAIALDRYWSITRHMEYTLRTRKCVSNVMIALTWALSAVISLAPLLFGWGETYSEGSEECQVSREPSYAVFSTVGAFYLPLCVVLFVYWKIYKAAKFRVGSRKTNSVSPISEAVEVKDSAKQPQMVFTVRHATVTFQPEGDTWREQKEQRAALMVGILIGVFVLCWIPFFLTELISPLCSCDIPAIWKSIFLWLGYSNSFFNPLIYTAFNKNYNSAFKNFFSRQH
Sequence of 5-hydroxytryptamine receptor 1E (Homo sapiens) (P28566 whole entry): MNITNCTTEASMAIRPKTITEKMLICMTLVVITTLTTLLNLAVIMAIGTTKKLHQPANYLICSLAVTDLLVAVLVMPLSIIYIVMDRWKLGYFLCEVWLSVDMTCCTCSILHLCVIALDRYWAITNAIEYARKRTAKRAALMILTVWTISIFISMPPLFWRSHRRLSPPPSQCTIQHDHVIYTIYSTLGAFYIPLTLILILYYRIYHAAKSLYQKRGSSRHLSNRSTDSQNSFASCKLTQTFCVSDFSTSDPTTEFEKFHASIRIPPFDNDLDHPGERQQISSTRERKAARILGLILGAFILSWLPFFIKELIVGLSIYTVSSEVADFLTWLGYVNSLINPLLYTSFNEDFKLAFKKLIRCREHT
Sequence of 5-hydroxytryptamine receptor 2A (P28223 whole entry): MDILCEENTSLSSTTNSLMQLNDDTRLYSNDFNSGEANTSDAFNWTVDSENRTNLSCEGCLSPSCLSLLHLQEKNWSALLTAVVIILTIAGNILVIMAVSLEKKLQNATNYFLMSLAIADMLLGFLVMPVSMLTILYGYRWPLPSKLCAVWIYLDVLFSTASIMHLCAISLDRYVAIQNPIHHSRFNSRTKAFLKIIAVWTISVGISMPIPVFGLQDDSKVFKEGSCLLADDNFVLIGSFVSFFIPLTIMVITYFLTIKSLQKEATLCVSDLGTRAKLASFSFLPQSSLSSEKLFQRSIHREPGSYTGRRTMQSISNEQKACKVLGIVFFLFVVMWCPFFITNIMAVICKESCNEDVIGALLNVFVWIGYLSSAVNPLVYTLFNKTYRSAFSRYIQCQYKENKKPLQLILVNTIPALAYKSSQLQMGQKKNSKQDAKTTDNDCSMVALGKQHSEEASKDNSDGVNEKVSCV
Sequence of 5-hydroxytryptamine receptor 6 (Homo sapiens) (P50406 whole entry): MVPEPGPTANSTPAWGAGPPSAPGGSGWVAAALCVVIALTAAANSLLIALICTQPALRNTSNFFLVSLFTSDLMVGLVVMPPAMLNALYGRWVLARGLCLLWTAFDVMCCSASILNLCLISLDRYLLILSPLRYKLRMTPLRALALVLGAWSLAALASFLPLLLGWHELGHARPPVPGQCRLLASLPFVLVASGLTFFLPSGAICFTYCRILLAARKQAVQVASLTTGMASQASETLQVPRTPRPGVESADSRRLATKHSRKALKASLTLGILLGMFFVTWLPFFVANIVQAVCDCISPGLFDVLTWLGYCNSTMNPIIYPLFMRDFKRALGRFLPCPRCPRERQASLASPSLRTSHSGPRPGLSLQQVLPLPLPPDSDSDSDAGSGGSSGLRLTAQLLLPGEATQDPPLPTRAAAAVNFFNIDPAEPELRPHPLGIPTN
Sequence of 5-hydroxytryptamine receptor 1B (Homo sapiens) (P28222 whole entry): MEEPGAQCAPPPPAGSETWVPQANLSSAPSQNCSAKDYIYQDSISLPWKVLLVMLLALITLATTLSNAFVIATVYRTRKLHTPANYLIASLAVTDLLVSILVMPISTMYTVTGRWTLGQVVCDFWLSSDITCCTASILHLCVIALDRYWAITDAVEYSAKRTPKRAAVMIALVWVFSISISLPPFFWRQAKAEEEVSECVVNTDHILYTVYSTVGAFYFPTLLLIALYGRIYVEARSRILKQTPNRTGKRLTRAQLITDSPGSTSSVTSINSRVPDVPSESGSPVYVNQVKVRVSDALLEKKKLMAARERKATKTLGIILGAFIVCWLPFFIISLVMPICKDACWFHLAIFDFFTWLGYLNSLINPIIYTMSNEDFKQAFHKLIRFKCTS
Sequence of 5-hydroxytryptamine receptor 7 (Homo sapiens) (P34969 whole entry): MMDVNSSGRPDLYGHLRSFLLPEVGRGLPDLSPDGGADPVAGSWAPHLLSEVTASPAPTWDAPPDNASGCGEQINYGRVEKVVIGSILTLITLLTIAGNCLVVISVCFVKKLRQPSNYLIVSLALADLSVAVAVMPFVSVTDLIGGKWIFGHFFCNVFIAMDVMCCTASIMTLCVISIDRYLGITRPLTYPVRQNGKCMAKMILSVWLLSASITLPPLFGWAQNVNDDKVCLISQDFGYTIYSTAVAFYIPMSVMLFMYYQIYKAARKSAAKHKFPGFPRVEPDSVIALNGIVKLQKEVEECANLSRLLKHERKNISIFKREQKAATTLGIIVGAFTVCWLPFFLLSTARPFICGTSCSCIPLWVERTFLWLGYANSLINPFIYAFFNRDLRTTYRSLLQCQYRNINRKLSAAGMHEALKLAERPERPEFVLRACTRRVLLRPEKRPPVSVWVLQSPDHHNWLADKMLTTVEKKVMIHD
Sequence of 5-hydroxytryptamine receptor 4 (Homo sapiens) (Q13639 whole entry): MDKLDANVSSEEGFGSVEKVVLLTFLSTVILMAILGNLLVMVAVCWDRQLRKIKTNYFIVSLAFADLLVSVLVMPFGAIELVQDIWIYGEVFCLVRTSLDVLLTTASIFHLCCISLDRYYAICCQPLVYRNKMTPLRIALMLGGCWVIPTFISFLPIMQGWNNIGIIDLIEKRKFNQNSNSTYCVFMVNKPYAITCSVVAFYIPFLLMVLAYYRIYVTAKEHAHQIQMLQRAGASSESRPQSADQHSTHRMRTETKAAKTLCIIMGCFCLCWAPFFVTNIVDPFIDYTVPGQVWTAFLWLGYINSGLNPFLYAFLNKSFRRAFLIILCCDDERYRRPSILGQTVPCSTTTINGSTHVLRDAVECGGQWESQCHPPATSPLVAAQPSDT
Sequence of Adenosine receptor A2a (P29274 whole entry): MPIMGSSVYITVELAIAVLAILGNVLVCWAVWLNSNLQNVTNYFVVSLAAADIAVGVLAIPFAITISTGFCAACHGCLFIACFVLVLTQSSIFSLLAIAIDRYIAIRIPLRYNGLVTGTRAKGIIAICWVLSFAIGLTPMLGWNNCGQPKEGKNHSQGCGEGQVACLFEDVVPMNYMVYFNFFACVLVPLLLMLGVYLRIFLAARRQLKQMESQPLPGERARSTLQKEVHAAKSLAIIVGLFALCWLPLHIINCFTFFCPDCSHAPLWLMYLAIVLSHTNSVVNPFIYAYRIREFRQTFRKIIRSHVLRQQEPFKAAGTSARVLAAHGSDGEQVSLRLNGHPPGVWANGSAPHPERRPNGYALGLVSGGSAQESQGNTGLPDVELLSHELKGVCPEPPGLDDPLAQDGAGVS
Sequence of Cytochrome P450 2C9 (P11712 whole entry): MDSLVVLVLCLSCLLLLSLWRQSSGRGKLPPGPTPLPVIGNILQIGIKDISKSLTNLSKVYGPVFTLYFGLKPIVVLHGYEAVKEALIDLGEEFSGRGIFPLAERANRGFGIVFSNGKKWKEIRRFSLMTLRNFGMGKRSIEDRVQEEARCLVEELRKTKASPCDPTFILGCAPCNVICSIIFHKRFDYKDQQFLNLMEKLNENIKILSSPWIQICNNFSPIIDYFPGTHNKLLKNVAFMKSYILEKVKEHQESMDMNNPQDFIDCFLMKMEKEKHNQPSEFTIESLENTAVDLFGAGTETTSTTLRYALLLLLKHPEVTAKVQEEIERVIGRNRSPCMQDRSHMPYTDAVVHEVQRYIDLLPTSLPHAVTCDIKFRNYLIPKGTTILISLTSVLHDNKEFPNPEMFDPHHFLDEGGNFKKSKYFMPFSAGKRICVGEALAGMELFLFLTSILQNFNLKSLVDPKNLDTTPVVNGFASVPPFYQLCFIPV

SMILES	pKi [1]	inhibition [2] [%]	Imax [3] [%]	inhibition [4] [%]	pKi (Adenosine receptor A3)	inhibition [5] [%]	pKi [6]	inhibition [7] [%]	inhibition [8] [%]	pKi (Adenosine receptor A2a)	inhibition [9] [%]	t1/2 [10] [h]	Papp [11] [×10⁻⁶ cm/s]	Stability [12] [%]	Stability [13] [%]	t1/2 [14] [h]	Stability [15] [%]	inhibition at 30 µM [16] [%]	pIC50 (Cytochrome P450 2C9)	t1/2 [17] [h]	further results
OC[C@@]12C[C@@H]1[C@@H](n1cnc3c(NC(C4CC4)C4CC4)nc(Cl)nc31)[C@H](O)[C@@H]2O	< 5.00	< 50	104	< 50	5.80	< 50	6.47	< 50	< 50	5.66	< 50										
COC(=O)[C@@]12C[C@@H]1[C@@H](n1cnc3c(NC(C4CC4)C4CC4)nc(Cl)nc31)[C@H](O)[C@@H]2O	< 5.00	< 50		< 50	6.12	< 50	8.39	< 50	< 50		< 50	> 2.33	30.59	61	70.9	> 2.33	94	< 30	4.70	> 8	Vdss [18]: 4.62 L/kg; t1/2 [19]: 3.56 h; C0 [20]: 349 ng/mL; CLH [21]: 0.77 µL/min/mg; remaining at 2 h [22]: 95.3 to 100%; t1/2 [23]: > 2.33 h; remaining at 2 h [24]: 50%; t1/2 [25]: 2.08 h
CCOC(=O)[C@@]12C[C@@H]1[C@@H](n1cnc3c(NC(C4CC4)C4CC4)nc(Cl)nc31)[C@H](O)[C@@H]2O	< 5.00	< 50	89	< 50	6.63	< 50	8.41	< 50	< 50		< 50										
CNC(=O)[C@@]12C[C@@H]1[C@@H](n1cnc3c(NC(C4CC4)C4CC4)nc(Cl)nc31)[C@H](O)[C@@H]2O	< 5.00	< 50		< 50	7.47	< 50	6.12	< 50	< 50	5.36	< 50	> 2.42	46.21	95	88.7	> 2.33	87	< 30	< 4.52	> 8	Vdss [18]: 3.16 L/kg; t1/2 [19]: 2.89 h; C0 [20]: 1070 ng/mL; CLH [21]: 1.75 µL/min/mg; remaining at 2 h [22]: 100 to 104%; t1/2 [23]: 2.17 h; remaining at 2 h [24]: 50%; t1/2 [25]: 2.2 h
